Consider 15 molecules from patent publication US11530210B2, “Substituted heteroaromatic pyrazolo-pyridines and their use as GLUN2B receptor modulators” (JANSSEN PHARMACEUTICA NV, priority 2019, dated 2022).

The structures appear in SMILES notation. Counter-ions that a name gives are not always drawn. Where only a bound is given, the exact number is not on record here.

The target in the assay is T1, human GluN1/GluN2B NMDA receptors (Homo sapiens, UniProt Q13224).
T1 construct: expressed in transfected cells
T1 sequence (Q13224 27-1484, other chains not shown): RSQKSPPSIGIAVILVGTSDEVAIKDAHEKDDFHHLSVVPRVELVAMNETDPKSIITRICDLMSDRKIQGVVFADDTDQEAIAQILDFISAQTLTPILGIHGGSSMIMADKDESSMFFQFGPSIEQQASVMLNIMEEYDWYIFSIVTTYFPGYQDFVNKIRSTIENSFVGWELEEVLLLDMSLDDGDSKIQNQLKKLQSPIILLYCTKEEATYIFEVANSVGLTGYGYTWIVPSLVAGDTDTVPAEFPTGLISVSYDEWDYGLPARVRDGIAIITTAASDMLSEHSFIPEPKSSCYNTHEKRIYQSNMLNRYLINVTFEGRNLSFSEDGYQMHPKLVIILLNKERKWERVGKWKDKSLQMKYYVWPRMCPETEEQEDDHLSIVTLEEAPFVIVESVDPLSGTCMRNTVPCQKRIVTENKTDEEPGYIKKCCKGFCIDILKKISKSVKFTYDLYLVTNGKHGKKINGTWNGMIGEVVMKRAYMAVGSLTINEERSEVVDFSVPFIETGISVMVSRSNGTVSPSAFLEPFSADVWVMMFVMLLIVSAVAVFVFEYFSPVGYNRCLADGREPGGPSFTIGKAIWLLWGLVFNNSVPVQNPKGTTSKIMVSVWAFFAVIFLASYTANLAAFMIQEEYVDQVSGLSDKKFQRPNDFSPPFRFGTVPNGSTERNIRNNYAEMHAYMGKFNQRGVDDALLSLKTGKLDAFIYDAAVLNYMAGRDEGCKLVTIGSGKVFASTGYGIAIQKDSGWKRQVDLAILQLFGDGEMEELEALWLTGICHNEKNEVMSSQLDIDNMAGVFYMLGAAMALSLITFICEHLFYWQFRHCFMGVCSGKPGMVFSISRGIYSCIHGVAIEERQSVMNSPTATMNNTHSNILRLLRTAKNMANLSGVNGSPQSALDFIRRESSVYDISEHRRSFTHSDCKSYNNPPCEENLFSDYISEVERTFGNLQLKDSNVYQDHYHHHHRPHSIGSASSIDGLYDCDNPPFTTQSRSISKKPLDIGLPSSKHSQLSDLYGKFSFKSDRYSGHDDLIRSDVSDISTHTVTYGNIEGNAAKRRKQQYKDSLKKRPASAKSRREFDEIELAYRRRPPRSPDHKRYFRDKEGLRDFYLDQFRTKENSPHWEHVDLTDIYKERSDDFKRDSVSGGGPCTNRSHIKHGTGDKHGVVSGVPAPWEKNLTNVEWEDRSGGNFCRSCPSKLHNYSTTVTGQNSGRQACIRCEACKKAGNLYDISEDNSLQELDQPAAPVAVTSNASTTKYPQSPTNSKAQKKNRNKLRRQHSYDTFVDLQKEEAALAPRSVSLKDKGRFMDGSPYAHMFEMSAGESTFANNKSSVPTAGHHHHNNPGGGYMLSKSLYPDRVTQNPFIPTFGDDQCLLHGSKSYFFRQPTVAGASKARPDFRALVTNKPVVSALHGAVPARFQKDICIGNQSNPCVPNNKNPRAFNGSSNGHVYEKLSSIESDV
The experiment in a line: Calcium flux (FLIPR) assay on cloned human NR1/GluN2B ion channels expressed in mammalian cells (standard and HTS variants). As to conditions: cells expressing human GluN1/GluN2B, glutamate and glycine co-agonists. The assay is classed as cell-based. The gist of the method:
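Tet-On-induced stable cell line loaded with Calcium 5 dye; compounds applied 5 min (agonist check), then glutamate at ~EC40 plus 10 μM glycine for 5 min. Buffer pH 7.4 with 0.5 mM MgCl2 in dye loading (standard) or 1.5 mM (HTS). FLIPR fluorescence normalized to control wells; (+)MK-801 as antagonist control.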
Regarding `Cn1cnc(Cn2ncc3ncc(-c4cccc(C(F)(F)F)c4)cc32)n1` [Example 71, 1-[(1-Methyl-1,2,4-triazol-3-yl)methyl]-6-[3-(trifluoromethyl)phenyl]pyrazolo[4,3-b]pyridine], the IC50 (as a rule, the concentration that gives 50% inhibition) was 891 nM.

Regarding `Fc1ccc(Cn2ncc3ncc(-c4ccc(C(F)(F)F)s4)cc32)cn1` [Example 143, 1-((6-Fluoropyridin-3-yl)methyl)-6-(5-(trifluoromethyl)thiophen-2-yl)-1H-pyrazolo[4,3-b]pyridine], the 50% inhibitory concentration (IC50) amounted to 132 nM.

Turning to `FC(F)(F)c1ccc(Cn2ncc3ncc(-c4cccc(C(F)(F)F)c4)cc32)cc1` [Example 25, 6-[3-(Trifluoromethyl)phenyl]-1-[[4-(trifluoromethyl)phenyl]methyl]pyrazolo[4,3-b]pyridine hydrochloride salt], the IC50 was over 10000 nM.

For `Cc1cnc(Cn2ncc3ncc(-c4ccc(F)c(C)c4F)cc32)s1` [Example 70, 2-[[6-(2,4-Difluoro-3-methyl-phenyl)pyrazolo[4,3-b]pyridin-1-yl]methyl]-5-methyl-thiazole], the IC50 is 350 nM.

`Cc1cnc(Cn2ncc3ncc(-c4ccc(F)c(OC(F)F)c4)cc32)o1` [Example 61, 2-[[6-[3-(Difluoromethoxy)-4-fluoro-phenyl]pyrazolo[4,3-b]pyridin-1-yl]methyl]-5-methyl-oxazole]: the half-inhibitory concentration (IC50) was determined as 160 nM.

For `CCc1nnc(Cn2ncc3ncc(-c4ccc(F)c(C(F)F)c4)cc32)n1C` [Example 76, 6-[3-(Difluoromethyl)-4-fluoro-phenyl]-1-[(5-ethyl-4-methyl-1,2,4-triazol-3-yl)methyl]pyrazolo[4,3-b]pyridine], the concentration for half-maximal inhibition (IC50) was determined as 3830 nM.

As to `Fc1ccc(-c2cnc3cnn(Cc4cn[nH]c4)c3c2)cc1C(F)F` [Example 38, 6-[3-(Difluoromethyl)-4-fluoro-phenyl]-1-(1H-pyrazol-4-ylmethyl)pyrazolo[4,3-b]pyridine], the half-inhibitory concentration (IC50) is 226 nM.

In the case of `Cn1ccc(Cn2ncc3ncc(-c4ccc(F)c(C(F)F)c4)cc32)n1` [Example 39, 6-[3-(Difluoromethyl)-4-fluoro-phenyl]-1-[(1-methylpyrazol-3-yl)methyl]pyrazolo[4,3-b]pyridine], the IC50 worked out at 271 nM.

Turning to `Fc1ccc(Cn2ncc3ncc(-c4ccc(F)c(C(F)F)c4)cc32)s1` [Example 33, 6-(3-(Difluoromethyl)-4-fluorophenyl)-1-((5-fluorothiophen-2-yl)methyl)-1H-pyrazolo[4,3-b]pyridine], the concentration for half-maximal inhibition (IC50) came out at 1030 nM.

For the molecule `COc1cccc(-c2cnc3cnn(Cc4ccccn4)c3c2)c1` [Example 154, 6-(3-Methoxyphenyl)-1-(2-pyridylmethyl)pyrazolo[4,3-b]pyridine], the half-inhibitory concentration (IC50) turned out to be 7370 nM.

In the case of `Cn1cnc(Cn2ncc3ncc(-c4ccc(F)c(C(F)F)c4)cc32)n1` [Example 73, 6-[3-(Difluoromethyl)-4-fluoro-phenyl]-1-[(1-methyl-1,2,4-triazol-3-yl)methyl]pyrazolo[4,3-b]pyridine], the IC50 was 383 nM.

In the case of `N#Cc1cncc(Cn2ncc3ncc(-c4cccc(C(F)F)c4F)cc32)c1` [Example 212, 5-[[6-[3-(Difluoromethyl)-2-fluoro-phenyl]pyrazolo[4,3-b]pyridin-1-yl]methyl]pyridine-3-carbonitrile], the IC50 came to 67 nM.

For `Cc1ncc(Cn2ncc3ncc(-c4ccc(F)c(OC(F)F)c4)cc32)o1` [Example 60, 5-[[6-[3-(Difluoromethoxy)-4-fluoro-phenyl]pyrazolo[4,3-b]pyridin-1-yl]methyl]-2-methyl-oxazole], the IC50 is 559 nM.

`N#Cc1cncc(Cn2ncc3ncc(-c4ccc(F)c(C(F)F)c4)cc32)c1` [Example 203, 5-[[6-[3-(Difluoromethyl)-4-fluoro-phenyl]pyrazolo[4,3-b]pyridin-1-yl]methyl]pyridine-3-carbonitrile]: the IC50 came to 31 nM.

Take `COc1cc(Cn2ncc3ncc(-c4ccc(F)c(OC(F)F)c4)cc32)ncn1` [Example 289, 6-[3-(Difluoromethoxy)-4-fluoro-phenyl]-1-[(6-methoxypyrimidin-4-yl)methyl]pyrazolo[4,3-b]pyridine]: the IC50 stood at 350 nM.
